In patent US20200181117A1, “SUBSTITUTED 3-HETEROARYLOXY-1H-PYRAZOLES AND SALTS THEREOF AND THEIR USE AS HERBICIDAL ACTIVE SUBSTANCES” (BAYER CROPSCIENCE AKTIENGESELLSCHAFT, priority 2017, published 2020):

What was measured:
Type in all cases: in vivo
[1] = test system: Pharbitis purpurea; experiment: Pre-emergence herbicidal action; details: 1280 g/ha, scored visually after about 3 weeks vs untreated controls
Procedure, shortened: (§1)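 Pre-emergence soil-surface spray at 1280 g/ha, compounds formulated as WP or EC, applied in 600 l/ha water containing 0.5% additive over freshly sown, soil-covered seeds. Pots then kept in greenhouse; damage rated visually as percent of untreated controls about 3 weeks later, 0% = like control.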

[2] = test system: Amaranthus retroflexus; experiment: Pre-emergence herbicidal action; details: 1280 g/ha, scored visually after about 3 weeks vs untreated controls
Procedure, shortened: as §1

[3] = test system: Matricaria inodora; experiment: Pre-emergence herbicidal action; details: 1280 g/ha, scored visually after about 3 weeks vs untreated controls
Procedure, shortened: as §1

[4] = test system: Stellaria media; experiment: Pre-emergence herbicidal action; details: 1280 g/ha, scored visually after about 3 weeks vs untreated controls
Procedure, shortened: as §1

[5] = test system: Polygonum convolvulus; experiment: Pre-emergence herbicidal action; details: 1280 g/ha, scored visually after about 3 weeks vs untreated controls
Procedure, shortened: as §1

[6] = test system: Viola tricolor; experiment: Pre-emergence herbicidal action; details: 1280 g/ha, scored visually after about 3 weeks vs untreated controls
Procedure, shortened: as §1

[7] = test system: Alopecurus myosuroides; experiment: Pre-emergence herbicidal action; details: 1280 g/ha, scored visually after about 3 weeks vs untreated controls
Procedure, shortened: as §1

[8] = test system: Abutilon theophrasti; experiment: Pre-emergence herbicidal action; details: 1280 g/ha, scored visually after about 3 weeks vs untreated controls
Procedure, shortened: as §1

[9] = test system: Setaria viridis; experiment: Pre-emergence herbicidal action; details: 1280 g/ha, scored visually after about 3 weeks vs untreated controls
Procedure, shortened: as §1

[10] = test system: Echinochloa crus-galli; experiment: Pre-emergence herbicidal action; details: 1280 g/ha, scored visually after about 3 weeks vs untreated controls
Procedure, shortened: as §1

[11] = test system: Viola tricolor; experiment: Post-emergence herbicidal action; details: 1280 g/ha, rated visually after about 3 weeks vs untreated controls
Procedure, shortened: (§2)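 Greenhouse post-emergence spray at one-leaf stage, 1280 g/ha, 600 l/ha water with 0.5% additive; efficacy rated visually after roughly 3 weeks, 0% meaning like controls and 100% meaning dead plants.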

[12] = test system: Lolium rigidum; experiment: Pre-emergence herbicidal action; details: 1280 g/ha, scored visually after about 3 weeks vs untreated controls
Procedure, shortened: as §1

[13] = test system: Avena fatua; experiment: Pre-emergence herbicidal action; details: 1280 g/ha, scored visually after about 3 weeks vs untreated controls
Procedure, shortened: as §1

[14] = test system: Hordeum murinum; experiment: Pre-emergence herbicidal action; details: 1280 g/ha, scored visually after about 3 weeks vs untreated controls
Procedure, shortened: as §1

[15] = test system: Amaranthus retroflexus; experiment: Post-emergence herbicidal action; details: 1280 g/ha, rated visually after about 3 weeks vs untreated controls
Procedure, shortened: as §2

[16] = test system: Stellaria media; experiment: Post-emergence herbicidal action; details: 1280 g/ha, rated visually after about 3 weeks vs untreated controls
Procedure, shortened: as §2

[17] = test system: Polygonum convolvulus; experiment: Post-emergence herbicidal action; details: 1280 g/ha, rated visually after about 3 weeks vs untreated controls
Procedure, shortened: as §2

[18] = test system: Alopecurus myosuroides; experiment: Post-emergence herbicidal action; details: 1280 g/ha, rated visually after about 3 weeks vs untreated controls
Procedure, shortened: as §2

[19] = test system: Abutilon theophrasti; experiment: Post-emergence herbicidal action; details: 1280 g/ha, rated visually after about 3 weeks vs untreated controls
Procedure, shortened: as §2

[20] = test system: Veronica persica; experiment: Pre-emergence herbicidal action; details: 1280 g/ha, scored visually after about 3 weeks vs untreated controls
Procedure, shortened: as §1

[21] = test system: Pharbitis purpurea; experiment: Post-emergence herbicidal action; details: 1280 g/ha, rated visually after about 3 weeks vs untreated controls
Procedure, shortened: as §2

[22] = test system: Echinochloa crus-galli; experiment: Post-emergence herbicidal action; details: 1280 g/ha, rated visually after about 3 weeks vs untreated controls
Procedure, shortened: as §2

[23] = test system: Setaria viridis; experiment: Post-emergence herbicidal action; details: 1280 g/ha, rated visually after about 3 weeks vs untreated controls
Procedure, shortened: as §2

[24] = test system: Lolium rigidum; experiment: Post-emergence herbicidal action; details: 1280 g/ha, rated visually after about 3 weeks vs untreated controls
Procedure, shortened: as §2

[25] = test system: Veronica persica; experiment: Post-emergence herbicidal action; details: 1280 g/ha, rated visually after about 3 weeks vs untreated controls
Procedure, shortened: as §2

[26] = test system: Ipomoea purpurea; experiment: Post-emergence herbicidal action; details: 1280 g/ha, rated visually after about 3 weeks vs untreated controls
Procedure, shortened: as §2

SMILES | herbicidal activity on Pharbitis purpurea [1] [%] | herbicidal activity on Amaranthus retroflexus [2] [%] | herbicidal activity on Matricaria inodora [3] [%] | herbicidal activity on Stellaria media [4] [%] | herbicidal activity on Polygonum convolvulus [5] [%] | herbicidal activity on Viola tricolor [6] [%] | herbicidal activity on Alopecurus myosuroides [7] [%] | herbicidal activity on Abutilon theophrasti [8] [%] | herbicidal activity on Setaria viridis [9] [%] | herbicidal activity on Echinochloa crus-galli [10] [%] | herbicidal activity on Viola tricolor [11] [%] | herbicidal activity on Lolium rigidum [12] [%] | herbicidal activity on Avena fatua [13] [%] | herbicidal activity on Hordeum murinum [14] [%] | herbicidal activity on Amaranthus retroflexus [15] [%] | herbicidal activity on Polygonum convolvulus [17] [%] | herbicidal activity on Abutilon theophrasti [19] [%] | herbicidal activity on Veronica persica [20] [%] | herbicidal activity on Pharbitis purpurea [21] [%] | herbicidal activity on Setaria viridis [23] [%] | further results
CCn1cc(Sc2ccc(F)cc2)c(Oc2ncccn2)n1 [Example I-038] | 80 | 100 | 90 | 100 | 80 | 100 | 80 | 80 | 100 | 80 | 90 | – | – | – | – | – | – | – | – | – | –
CCc1c(Sc2ccc(F)c(F)c2)c(Oc2ncccn2)nn1C [Example I-062] | 80 | 100 | 100 | 100 | 100 | 100 | 100 | 100 | 100 | 100 | 100 | 80 | 80 | 100 | 100 | 90 | 100 | – | – | – | herbicidal activity on Stellaria media [16]: 90%; herbicidal activity on Alopecurus myosuroides [18]: 80%
CCc1c(Sc2ccc(F)cc2F)c(Oc2ncc(F)cn2)nn1C [Example I-094] | 100 | 100 | 100 | 100 | 90 | 100 | 100 | 100 | 100 | 100 | 100 | 80 | – | 100 | 100 | 90 | 90 | 100 | 100 | – | herbicidal activity on Stellaria media [16]: 100%; herbicidal activity on Echinochloa crus-galli [22]: 80%
Fc1ccc(Sc2c(Oc3ncccn3)nn3c2CCC3)cc1 [Example I-097] | 90 | 90 | 100 | 100 | 100 | 100 | 100 | 100 | 100 | 100 | 80 | – | 80 | 90 | 80 | – | 90 | 90 | 90 | 90 | herbicidal activity on Alopecurus myosuroides [18]: 90%; herbicidal activity on Echinochloa crus-galli [22]: 100%
COc1cnc(Oc2nn(C)c(C)c2Sc2ccc(F)c(F)c2)nc1 [Example I-157] | – | 100 | 100 | 100 | 100 | 100 | 100 | 100 | 100 | 100 | 100 | 100 | 100 | 100 | 100 | 80 | 90 | 100 | – | 80 | herbicidal activity on Lolium rigidum [24]: 80%; herbicidal activity on Alopecurus myosuroides [18]: 100%; herbicidal activity on Echinochloa crus-galli [22]: 100%
CCc1c(Sc2ccc(F)cc2)c(Oc2ncc(F)cn2)nn1C [Example I-183] | – | 100 | 100 | 100 | 100 | 100 | 100 | 100 | 100 | 100 | 100 | 100 | – | 100 | 100 | 90 | 90 | – | 100 | 100 | herbicidal activity on Stellaria media [16]: 90%; herbicidal activity on Alopecurus myosuroides [18]: 90%; herbicidal activity on Echinochloa crus-galli [22]: 90%; herbicidal activity on Veronica persica [25]: 90%
CCc1c(Sc2ccc(F)cc2)c(Oc2ncc(OC)cn2)nn1C [Example I-186] | – | 100 | 90 | 100 | 80 | 100 | – | – | 100 | – | 100 | – | – | – | 100 | – | – | – | 80 | – | herbicidal activity on Ipomoea purpurea [26]: 80%
COc1cnc(Oc2nn(C)c(C)c2Sc2ccc(F)cc2F)nc1 [Example I-205] | 100 | 100 | 100 | 100 | 100 | 100 | 100 | 100 | 100 | 100 | 90 | 100 | 100 | 100 | 90 | – | 90 | 100 | – | 80 | –
CCc1c(Sc2ccc(F)cc2F)c(Oc2ncc(OC)cn2)nn1C [Example I-207] | – | 100 | – | 100 | 80 | 100 | – | 80 | 100 | – | 80 | – | – | – | 90 | – | – | 100 | 90 | – | herbicidal activity on Ipomoea purpurea [26]: 90%
CCn1cc(Sc2ccc(F)cc2)c(Oc2ncc(F)cn2)n1 [Example I-211] | 80 | 100 | 90 | 100 | 90 | 100 | 90 | 90 | 100 | 90 | 80 | 100 | – | – | – | 100 | – | 100 | – | 90 | herbicidal activity on Stellaria media [16]: 100%
